± gives the expanded uncertainty stated by the source.
Experiment: molar heat capacity at constant volume; xn = mol fraction of the nth substance listed
Conditions: Fluid (supercritical or subcritical phases), Isochoric Heat Capacity Apparatus

CCCCCCCCCC [decane] + O=C=O
Conditions | molar heat capacity at constant volume [J/K/mol]
467.19 K, Mass density=87 kg/m3, x1 = 0.095 | 706.83 ± 14
467.97 K, Mass density=408.8 kg/m3, x1 = 0.178 | 487.71 ± 9.8
468.76 K, Mass density=374.7 kg/m3, x1 = 0.095 | 336.34 ± 6.7
468.76 K, Mass density=408.8 kg/m3, x1 = 0.178 | 486.42 ± 9.7
470.72 K, Mass density=477.6 kg/m3, x1 = 0.095 | 326.31 ± 6.5
471.2 K, Mass density=281.4 kg/m3, x1 = 0.095 | 360.93 ± 7.2
471.69 K, Mass density=281.4 kg/m3, x1 = 0.095 | 359.81 ± 7.2
471.89 K, Mass density=281.4 kg/m3, x1 = 0.095 | 358.48 ± 7.1
473.25 K, Mass density=281.4 kg/m3, x1 = 0.095 | 350.91 ± 7
474.61 K, Mass density=457.5 kg/m3, x1 = 0.178 | 456.77 ± 9.2
475.97 K, Mass density=110.8 kg/m3, x1 = 0.095 | 594.8 ± 12
476.12 K, Mass density=110.8 kg/m3, x1 = 0.095 | 599.07 ± 12
476.33 K, Mass density=110.8 kg/m3, x1 = 0.095 | 591.07 ± 12
476.36 K, Mass density=320.2 kg/m3, x1 = 0.095 | 342.64 ± 6.8
476.56 K, Mass density=408.8 kg/m3, x1 = 0.178 | 472.21 ± 9.5
476.75 K, Mass density=110.8 kg/m3, x1 = 0.095 | 590.53 ± 12
476.94 K, Mass density=398.3 kg/m3, x1 = 0.095 | 336.82 ± 6.7
477.33 K, Mass density=110.8 kg/m3, x1 = 0.095 | 594.8 ± 12
477.52 K, Mass density=374.7 kg/m3, x1 = 0.095 | 337.73 ± 6.8
477.52 K, Mass density=375 kg/m3, x1 = 0.178 | 493.12 ± 9.8
477.81 K, Mass density=375 kg/m3, x1 = 0.178 | 495.64 ± 9.9
478.2 K, Mass density=375 kg/m3, x1 = 0.178 | 491.03 ± 9.8
478.49 K, Mass density=375 kg/m3, x1 = 0.178 | 492.57 ± 9.8
479.84 K, Mass density=408.8 kg/m3, x1 = 0.178 | 471.47 ± 9.4
481.77 K, Mass density=241 kg/m3, x1 = 0.095 | 380.35 ± 7.6
481.96 K, Mass density=241 kg/m3, x1 = 0.095 | 378.38 ± 7.6
482.02 K, Mass density=131.5 kg/m3, x1 = 0.095 | 517.93 ± 10
482.41 K, Mass density=131.5 kg/m3, x1 = 0.095 | 521.08 ± 10
483.31 K, Mass density=241 kg/m3, x1 = 0.095 | 370.32 ± 7.4
483.37 K, Mass density=131.5 kg/m3, x1 = 0.095 | 528.44 ± 11
485.04 K, Mass density=281.4 kg/m3, x1 = 0.095 | 352.45 ± 7
